Data on two compounds can be found in PMC10977697 (PLOS ONE, 2024).

Where a SMILES comes first, the peptide text is derived from it. Some results are limits rather than exact numbers.

Assay [1] has as its target T1, Notch2Long (Notch2 EGF6-EGF12) (Homo sapiens, UniProt Q04721).
T1 construct: Biotinylated N2L protein (D219–E418, made in-house); His tag (cleaved yes); made in house; host or cells: CHO
T1 sequence (Q04721 219-418): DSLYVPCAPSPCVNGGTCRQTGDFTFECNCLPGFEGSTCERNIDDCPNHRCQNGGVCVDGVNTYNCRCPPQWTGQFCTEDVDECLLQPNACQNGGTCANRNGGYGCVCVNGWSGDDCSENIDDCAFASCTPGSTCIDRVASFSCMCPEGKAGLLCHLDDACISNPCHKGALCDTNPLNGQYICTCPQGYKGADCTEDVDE
The experiment in a line: SPR binding of synthetic DCPs to Notch2Long. The settings on record: Biacore S200, 25°C, 50 μL/min; synthetic in vitro folded peptide, 3-fold dilution from 100 μM; biotinylated N2L on chip SA; steady state fitting; at least three independent experiments; n/d = no binding. The method, then: (§1) All binding experiments were performed using a Biacore S200 instrument (GE Healthcare) at 25°C at a flow rate of 50 μL/min. The kinetics and affinity measurements were carried out using either single-cycle or multi-cycle kinetics (SCK or MCK), solvent corrected and referenced by subtracting the signal to the blank flow cell. Binding affinity and kinetic parameters (association and dissociation rate constants, and dissociation equilibrium constant) were calculated with the Biacore S200 Evaluation Software (version 1.1.1, Cytiva) using either a 1:1 binding model or a steady-state equilibrium model (according to the manufacturer’s instructions).
Biotinylated N2L protein (D219–E418, made in-house) and NRR protein (A1423–Q1677, made in-house) were captured at around 500, 1000 and 1500 RU on Sensor Chip SA (Cytiva).
On the technique in general: Surface plasmon resonance follows binding to a sensor surface in real time, without labels.

The subject of another assay is Notch2Long. The experiment in a line: Spot phage ELISA, Notch2Long. Format: binding, human. The note with it: Table 3, affinity maturation clones. (In an ELISA, binding on a coated surface is turned into a signal by an enzyme label.)
The next assay has as its system Notch 2. Kind of assay: Phage competition ELISA on Notch 2. The settings on record: N2L_EET03 peptide against N2L_EET31 displaying phage (Fig 5C). Format: binding, human. An excerpt:
Subsequently, we selected another primary hit, N2L.EET31, for affinity maturation as outlined in Fig 5A with improved outcome. Despite displaying a weak ELISA signal, N2L.EET31 was identified as the most abundant sequence by NGS analysis (56.6% in round 4). […] Due to these observations, N2L.EET31 was selected as another candidate for affinity maturation. An NNK-walking experiment (described in the methods section) provided valuable information on the functional importance of individual loop residues. […] These residues are either crucial for binding or play a critical role in overall peptide folding. […] Based on this information, we designed hard randomization libraries for Loop 2 and Loop 3_4 as part of the second generation of affinity maturation.

Assay [2] has as its target T2, Her3-Fc (Homo sapiens, UniProt P21860).
T2 construct: purchased R&D 348-RB
The experiment in a line: SPR binding to Her3-Fc. The settings on record: Biacore S200, 25°C; Her3-Fc Avi-tag on chip SA; HBS-EP+ plus 1% DMSO; MCK. The method, then: as §1
Her3-Fc Avi-tag (R&D) was captured at about 1200 and 3000 RU on Series S Sensor Chip SA (Cytiva). The SPR measurements were done in HBS-EP+ buffer (0.01 M HEPES pH 7.4, 0.15 M NaCl, 3 mM EDTA, 0.05% v/v Surfactant P20) plus 1% v/v DMSO.

Assay [3] addresses T2, Her3-Fc. Kind of assay: Spot phage ELISA, Her3-Fc. The format is binding.

T2 sequence (P21860 20-643 limits assumed): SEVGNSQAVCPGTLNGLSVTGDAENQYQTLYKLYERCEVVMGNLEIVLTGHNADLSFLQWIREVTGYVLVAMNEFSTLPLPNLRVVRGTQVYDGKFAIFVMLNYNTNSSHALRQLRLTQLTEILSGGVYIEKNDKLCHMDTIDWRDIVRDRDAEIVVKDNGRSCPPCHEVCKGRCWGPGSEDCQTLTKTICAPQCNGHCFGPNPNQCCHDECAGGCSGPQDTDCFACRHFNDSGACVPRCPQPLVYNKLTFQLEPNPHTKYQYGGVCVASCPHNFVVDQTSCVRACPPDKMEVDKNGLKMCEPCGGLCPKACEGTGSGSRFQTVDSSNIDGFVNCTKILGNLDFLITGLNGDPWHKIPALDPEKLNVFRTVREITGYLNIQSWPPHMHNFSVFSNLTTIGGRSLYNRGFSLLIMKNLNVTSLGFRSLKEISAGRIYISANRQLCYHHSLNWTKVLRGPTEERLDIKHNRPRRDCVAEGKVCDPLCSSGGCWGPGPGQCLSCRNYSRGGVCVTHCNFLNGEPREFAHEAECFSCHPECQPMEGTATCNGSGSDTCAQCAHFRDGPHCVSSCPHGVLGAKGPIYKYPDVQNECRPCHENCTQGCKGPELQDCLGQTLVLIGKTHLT

A word on the Kd: it is the free concentration of one partner at which half of the binding sites on the other are occupied at equilibrium, for simple one-to-one binding. Regarding `CC[C@H](C)[C@@H]1NC(=O)[C@@H](NC(=O)CN)CSSC[C@@H]2NC(=O)CNC(=O)[C@H](C)NC(=O)[C@H](CC(C)C)NC(=O)[C@@H]3CSSC[C@@H](C(=O)NCC(=O)O)NC(=O)[C@H](CCC(N)=O)NC(=O)[C@H]([C@@H](C)CC)NC(=O)[C@H](Cc4c[nH]c5ccccc45)NC(=O)[C@H](C(C)C)NC(=O)[C@H](CCC(=O)O)NC(=O)[C@H](CSSC[C@H](NC(=O)[C@H](Cc4c[nH]c5ccccc45)NC(=O)[C@H](CC(C)C)NC(=O)[C@H](Cc4c[nH]cn4)NC(=O)[C@H](CO)NC(=O)[C@H](CCCCN)NC1=O)C(=O)N[C@@H](CCCCN)C(=O)N[C@@H](CCC(N)=O)C(=O)N[C@@H](CC(=O)O)C(=O)N[C@@H](CO)C(=O)N[C@@H](CC(=O)O)C(=O)N3)NC(=O)[C@H](C(C)C)NC2=O` [N2L.EET31] (HELM PEPTIDE1{G.C.I.K.S.H.L.W.C.K.Q.D.S.D.C.L.A.G.C.V.C.E.V.W.I.Q.C.G}$PEPTIDE1,PEPTIDE1,2:R3-19:R3|PEPTIDE1,PEPTIDE1,9:R3-21:R3|PEPTIDE1,PEPTIDE1,15:R3-27:R3$$$V2.0; N-terminus and C-terminus assumed), the equilibrium dissociation constant (Kd) in assay [1] was more than 100 µM. Also, the “s/n ratio” value in the assay on Notch2Long (signal over BSA background) stood at 0.4. Also, the ELISA with Notch2Long (spot phage ELISA signal, display (p8 or p3) not given per clone) came out at 0.1. For the same compound, the “competition in phage competition ELISA” value in the assay with Notch 2 is listed as “exhibited competition with N2L.EET03”.
For `CC(C)C[C@@H]1NC(=O)[C@H](CCCNC(=N)N)NC(=O)[C@H](CCC(N)=O)NC(=O)[C@@H]2CSSC[C@@H](C(=O)N[C@@H](CCC(=O)O)C(=O)N[C@@H](CCC(=O)O)C(=O)O)NC(=O)[C@H](CCCCN)NC(=O)[C@@H]3CSSC[C@H](NC(=O)[C@H](CCC(=O)O)NC(=O)[C@H](CCCCN)NC(=O)[C@H](CO)NC(=O)[C@H]([C@@H](C)O)NC(=O)[C@H]([C@@H](C)O)NC(=O)[C@@H](NC(=O)[C@H](CO)NC(=O)[C@@H](N)C(C)C)CSSC[C@H](NC(=O)[C@H](CCC(N)=O)NC(=O)[C@H](CCC(=O)O)NC(=O)CNC(=O)[C@H](Cc4c[nH]c5ccccc45)NC(=O)[C@H](CO)NC(=O)[C@H]([C@@H](C)O)NC(=O)[C@H](CC(N)=O)NC(=O)[C@H](Cc4c[nH]cn4)NC1=O)C(=O)N[C@@H](C(C)C)C(=O)N[C@@H]([C@@H](C)O)C(=O)N[C@@H](CCCCN)C(=O)N[C@@H](Cc1ccccc1)C(=O)N3)C(=O)N[C@@H](Cc1c[nH]c3ccccc13)C(=O)N[C@@H](CO)C(=O)N[C@@H](C(C)C)C(=O)N2` [Her3-Fc_ChTx1], the dissociation constant (Kd) on Her3-Fc [2] was more than 10 µM. On Her3-Fc [3] (ratio of signal for target protein over BSA background), the S/N stood at 22.6. At Her3-Fc [3] (spot phage ELISA signal, DCP displayed on M13 p8, L1 2), this compound gave an ELISA of 1.74.
